Where “and” joins values, the source holds several entries; their conditions need not be identical. Equal values may be shown once. Inconclusive results and toxic doses are left out. The calls were made as follows: active = survival T/C of 150% or more; inactive = T/C below 125% in these data.
Tested on: CD2F1 mice, intracerebral P388 leukemia, median survival T/C%
Assay: NCI In Vivo Anticancer Drug Screen. Data for tumor model P388 Leukemia (intracerebral) in CD2F1 (CDF1) mice
Conditions: endpoint: median survival time, higher = longer survival
Protocol: The antitumor activity of compounds was measured in mice bearing transplantable tumors. Survival or tumor size were measured and the results are expressed as the measurement made in the treated group (T) divided by the measurement made in the vehicle treated control group (C). The tumor model used in this assay is P388 Leukemia (intracerebral) in CD2F1 (CDF1) mice

[1] = dose: 8.0 mg/kg/injection, schedule: Q01DX009 (ip), vehicle: Klucel (hydroxypropylcellulose) (HPC)
[2] = dose: 16.0 mg/kg/injection, schedule: Q01DX009 (ip), vehicle: Klucel (hydroxypropylcellulose) (HPC)
[3] = dose: 32.0 mg/kg/injection, schedule: Q01DX009 (ip), vehicle: Klucel (hydroxypropylcellulose) (HPC)
[4] = dose: 64.0 mg/kg/injection, schedule: Q01DX009 (ip), vehicle: Klucel (hydroxypropylcellulose) (HPC)
[5] = dose: 128.0 mg/kg/injection, schedule: Q01DX009 (ip), vehicle: Klucel (hydroxypropylcellulose) (HPC)
[6] = dose: 256.0 mg/kg/injection, schedule: Q01DX009 (ip), vehicle: Klucel (hydroxypropylcellulose) (HPC)
[7] = dose: 512.0 mg/kg/injection, schedule: Q01DX009 (ip), vehicle: Klucel (hydroxypropylcellulose) (HPC)
[8] = dose: 100.0 mg/kg/injection, schedule: Q01DX009 (ip), vehicle: saline with Tween-80
[9] = dose: 12.5 mg/kg/injection, schedule: Q01DX009 (ip), vehicle: saline with Tween-80
[10] = dose: 50.0 mg/kg/injection, schedule: Q01DX009 (ip), vehicle: saline with Tween-80

Measured: T/C

CCC(=O)O[C@H]1CC[C@H]2[C@@H]3CC[C@H]4CC(=O)[C@H](C)C[C@]4(C)[C@H]3CC[C@]12C
inactive: [1] 121 % of control and 105 % of control | dose: 8.0 mg/kg/injection, schedule: Q01DX009 (ip), vehicle: saline with Tween-80 100 % of control and 106 % of control | [2] 94 % of control and 103 % of control | dose: 16.0 mg/kg/injection, schedule: Q01DX009 (ip), vehicle: saline with Tween-80 100 % of control and 106 % of control | [3] 123 % of control and 98 % of control | dose: 32.0 mg/kg/injection, schedule: Q01DX009 (ip), vehicle: saline with Tween-80 97 % of control and 100 % of control | [4] 123 % of control and 100 % of control | dose: 64.0 mg/kg/injection, schedule: Q01DX009 (ip), vehicle: saline with Tween-80 116 % of control and 91 % of control | [5] 120 % of control and 102 % of control | dose: 128.0 mg/kg/injection, schedule: Q01DX009 (ip), vehicle: saline with Tween-80 95 % of control and 106 % of control | [6] 114 % of control and 94 % of control | dose: 256.0 mg/kg/injection, schedule: Q01DX009 (ip), vehicle: saline with Tween-80 100 % of control and 109 % of control | [7] 111 % of control | dose: 512.0 mg/kg/injection, schedule: Q01DX009 (ip), vehicle: saline with Tween-80 91 % of control and 106 % of control

Cc1cn(C2CC(O)C(CO)O2)c(=O)[nH]c1=O (configuration not stated)
inactive: [8] 98 % of control and 104 % of control | dose: 100.0 mg/kg/injection, schedule: Q01DX009 (ip), vehicle: saline 93 % of control and 102 % of control | dose: 200.0 mg/kg/injection, schedule: Q01DX009 (ip), vehicle: saline with Tween-80 108 % of control and 109 % of control | dose: 200.0 mg/kg/injection, schedule: Q01DX009 (ip), vehicle: saline 97 % of control and 109 % of control | dose: 400.0 mg/kg/injection, schedule: Q01DX009 (ip), vehicle: saline with Tween-80 101 % of control and 109 % of control | dose: 400.0 mg/kg/injection, schedule: Q01DX009 (ip), vehicle: saline 94 % of control and 111 % of control | dose: 800.0 mg/kg/injection, schedule: Q01DX009 (ip), vehicle: saline with Tween-80 114 % of control and 111 % of control | dose: 800.0 mg/kg/injection, schedule: Q01DX009 (ip), vehicle: saline 104 % of control and 105 % of control | dose: 1600.0 mg/kg/injection, schedule: Q01DX009 (ip), vehicle: saline with Tween-80 93 % of control and 101 % of control

O=C1c2c(O)ccc(O)c2C(=O)c2c(NCCNCCO)ccc(NCCNCCO)c21
inactive: dose: 0.5 mg/kg/injection, schedule: Q01DX009 (ip), vehicle: saline with Tween-80 100 % of control | dose: 1.0 mg/kg/injection, schedule: Q01DX009 (ip), vehicle: saline with Tween-80 105 % of control | dose: 2.0 mg/kg/injection, schedule: Q01DX009 (ip), vehicle: saline with Tween-80 106 % of control

O=NN(CCCl)C(=O)NC1CCC(=O)NC1=O (configuration not stated)
active: dose: 3.0 mg/kg/injection, schedule: Q01DX009 (ip), vehicle: saline with Tween-80 221 % of control | dose: 4.0 mg/kg/injection, schedule: Q01DX009 (ip), vehicle: saline with Tween-80 242 % of control | dose: 6.0 mg/kg/injection, schedule: Q01DX009 (ip), vehicle: saline with Tween-80 250 % of control | dose: 8.0 mg/kg/injection, schedule: Q01DX001 (ip), vehicle: saline 156 % of control | dose: 16.0 mg/kg/injection, schedule: Q01DX001 (ip), vehicle: saline 212 % of control | dose: 32.0 mg/kg/injection, schedule: Q01DX001 (ip), vehicle: saline 262 % of control | dose: 64.0 mg/kg/injection, schedule: Q01DX001 (ip), vehicle: saline 212 % of control
inactive: dose: 4.0 mg/kg/injection, schedule: Q01DX001 (ip), vehicle: saline 114 % of control

C[C@]12C=CC(=O)C=C1CC[C@@H]1[C@@H]2C(=O)C[C@@]2(C)[C@H]1CC[C@]2(O)C(=O)CO
inactive: [1] 95 % of control and 99 % of control | [2] 100 % of control and 104 % of control | [3] 98 % of control and 102 % of control | [4] 99 % of control and 104 % of control | [5] 95 % of control and 102 % of control | [6] 102 % of control and 104 % of control | [7] 95 % of control and 99 % of control

CCCCCCCCCCCCCCCCCC(=O)N[C@@H](Cc1ccc(N(CCCl)CCCl)cc1)C(=O)NCCCCCC
inactive: dose: 2.12 mg/kg/injection, schedule: Q03HX008 (ip), vehicle: saline 105 % of control | dose: 4.24 mg/kg/injection, schedule: Q03HX008 (ip), vehicle: saline 105 % of control | dose: 8.48 mg/kg/injection, schedule: Q03HX008 (ip), vehicle: saline 105 % of control | dose: 16.95 mg/kg/injection, schedule: Q03HX008 (ip), vehicle: saline 94 % of control | dose: 33.9 mg/kg/injection, schedule: Q03HX008 (ip), vehicle: saline 105 % of control | dose: 67.8 mg/kg/injection, schedule: Q03HX008 (ip), vehicle: saline 110 % of control

CC1(C)N=C(N)N=C(N)N1c1ccc(OCC(=O)Nc2ccc(S(=O)(=O)F)cc2)c(Cl)c1
inactive: dose: 50.0 mg/kg/injection, schedule: Q04DX003 (ip), vehicle: saline 111 % of control | dose: 100.0 mg/kg/injection, schedule: Q04DX003 (ip), vehicle: saline 100 % of control | dose: 200.0 mg/kg/injection, schedule: Q04DX003 (ip), vehicle: saline 111 % of control

CC1(C)N=C(N)N=C(N)N1c1ccc(CCCCc2ccc(S(=O)(=O)F)cc2Cl)c(Cl)c1
inactive: [9] 97 % of control | [10] 116 % of control | [8] 96 % of control | dose: 133.0 mg/kg/injection, schedule: Q04DX003 (ip), vehicle: saline with Tween-80 102 % of control | dose: 200.0 mg/kg/injection, schedule: Q04DX003 (ip), vehicle: saline with Tween-80 108 % of control | dose: 300.0 mg/kg/injection, schedule: Q04DX003 (ip), vehicle: saline with Tween-80 95 % of control

CN(CO)c1nc(N(C)CO)nc(N(C)CO)n1
inactive: dose: 3.12 mg/kg/injection, schedule: Q01DX009 (ip), vehicle: saline with Tween-80 98 % of control | dose: 6.25 mg/kg/injection, schedule: Q01DX009 (ip), vehicle: saline with Tween-80 106 % of control | [9] 100 % of control and 101 % of control | dose: 25.0 mg/kg/injection, schedule: Q01DX009 (ip), vehicle: saline with Tween-80 116 % of control and 104 % of control | dose: 50.0 mg/kg/injection, schedule: Q01DX009 (ip), vehicle: Klucel (hydroxypropylcellulose) (HPC) 115 % of control and 93 % of control | [10] 103 % of control and 106 % of control | dose: 100.0 mg/kg/injection, schedule: Q01DX009 (ip), vehicle: Klucel (hydroxypropylcellulose) (HPC) 121 % of control and 112 % of control

CC1(C)N=C(N)N=C(N)N1c1ccc(CCCCc2ccc(Cl)c(S(=O)(=O)F)c2)c(Cl)c1
inactive: dose: 8.0 mg/kg/injection, schedule: Q01DX009 (ip), vehicle: saline 105 % of control | dose: 12.0 mg/kg/injection, schedule: Q01DX009 (ip), vehicle: saline 122 % of control | dose: 18.0 mg/kg/injection, schedule: Q01DX009 (ip), vehicle: saline 116 % of control | dose: 27.0 mg/kg/injection, schedule: Q01DX009 (ip), vehicle: saline 88 % of control

c1ccc([C@H]2CN3CCSC3=N2)cc1
inactive: dose: 5.0 mg/kg/injection, schedule: Q01DX009 (ip), vehicle: saline 113 % of control and 101 % of control and 102 % of control | dose: 10.0 mg/kg/injection, schedule: Q01DX005 (ip), vehicle: saline 105 % of control and 107 % of control | dose: 10.0 mg/kg/injection, schedule: Q01DX009 (ip), vehicle: saline 97 % of control and 100 % of control and 106 % of control | dose: 20.0 mg/kg/injection, schedule: Q01DX005 (ip), vehicle: saline 98 % of control and 102 % of control | dose: 20.0 mg/kg/injection, schedule: Q01DX009 (ip), vehicle: saline 113 % of control and 92 % of control and 103 % of control | dose: 40.0 mg/kg/injection, schedule: Q01DX005 (ip), vehicle: saline 97 % of control

CC(=O)O[C@H]1C(=O)[C@@]2(C)[C@H]([C@H](OC(=O)c3ccccc3)[C@]3(O)C[C@H](OC(=O)[C@H](O)[C@@H](NC(=O)c4ccccc4)c4ccccc4)C(C)=C1C3(C)C)[C@]1(OC(C)=O)CO[C@@H]1C[C@@H]2O
inactive: dose: 2.5 mg/kg/injection, schedule: Q01DX009 (ip), vehicle: Klucel (hydroxypropylcellulose) (HPC) 100 % of control | dose: 5.0 mg/kg/injection, schedule: Q01DX009 (ip), vehicle: Klucel (hydroxypropylcellulose) (HPC) 103 % of control | dose: 10.0 mg/kg/injection, schedule: Q01DX009 (ip), vehicle: Klucel (hydroxypropylcellulose) (HPC) 96 % of control | dose: 20.0 mg/kg/injection, schedule: Q01DX009 (ip), vehicle: Klucel (hydroxypropylcellulose) (HPC) 86 % of control
